Laboratory results published in patent US4642341A, “Carbapenem antibiotics” (priority 1985, dated 1987).
Values after ≈ are worked out from the molar mass of the structure shown. Like-named read-outs stand apart in the source and are kept apart here.

What was measured:
[1] = tested on: P. mirabilis A-9900; experiment: Minimum Inhibitory Concentration, tube dilution; format: cell-based; details: Proteus mirabilis, A9900, overnight 37° C.; table 6
[2] = tested on: S. aureus A-9606 (Pen-res.); experiment: Minimum Inhibitory Concentration, tube dilution; format: cell-based; details: Staphylococcus aureus, Pen-res; table 6
[3] = tested on: P. aeruginosa A21213; experiment: Minimum Inhibitory Concentration, tube dilution; format: cell-based; details: Pseudomonas aeruginosa, A21213, overnight 37° C.; table 6; read-out: MIC
[4] = tested on: E. coli A20341-1; experiment: Minimum Inhibitory Concentration, tube dilution; format: cell-based; details: Escherichia coli, A203411, overnight 37° C.; table 6
[5] = tested on: S. pyogenes A-9604; experiment: Minimum Inhibitory Concentration, tube dilution; format: cell-based; details: Streptococcus pyogenes, A9604, overnight 37° C.; table 6
[6] = tested on: S. faecalis A20688; experiment: Minimum Inhibitory Concentration, tube dilution; format: cell-based; details: Enterococcus faecalis, A20688, overnight 37° C.; table 6; read-out: MIC
[7] = tested on: S. pneumoniae A-9585; experiment: Minimum Inhibitory Concentration, tube dilution; format: cell-based; details: Streptococcus pneumoniae, A9585, overnight 37° C.; table 6
[8] = tested on: P. vulgaris A21559; experiment: Minimum Inhibitory Concentration, tube dilution; format: cell-based; details: Proteus vulgaris, A21559, overnight 37° C.; table 6
[9] = tested on: E. coli A15119; experiment: Minimum Inhibitory Concentration, tube dilution; format: cell-based; details: Escherichia coli, A15119, overnight 37° C.; table 6
[10] = tested on: S. marcescens A20019; experiment: Minimum Inhibitory Concentration, tube dilution; format: cell-based; details: Serratia marcescens, A20019, overnight 37° C.; table 6
[11] = tested on: P. aeruginosa A-9843A; experiment: Minimum Inhibitory Concentration, tube dilution; format: cell-based; details: Pseudomonas aeruginosa, A9843A, overnight 37° C.; table 6; read-out: MIC
[12] = tested on: S. aureus A-9537; experiment: Minimum Inhibitory Concentration, tube dilution; format: cell-based; details: Staphylococcus aureus, table 6, read-out: MIC
[13] = Half-life in phosphate buffer pH 7.4; format: physicochemical
Procedure: To a solution of p-nitrobenzyl 3-[2-(1-pyridinium)ethylthio)]-6α[1-(R)-hydroxyethyl]-7-oxo-1-azabicyclo(3.2.0)hept-2-ene-carboxylate diphenylphosphate (0.16 g, 0.22 mmol) in wet tetrahydrofuran (10mL) was added ether (10mL), potassium phosphate monobasic-sodium hydroxide buffer pH 7.4 (16 mL, 0.05 M) and 10% palladium on charcoal (0.16 g). The resulting mixture was hydrogenated under 40 psi for 1 h at 25° C. The two phases were separated and the organic phase was extracted with water (2×3 mL). The aqeuous solutions were combined, washed with ether (2×10 ml) and poured on top of a column (1.5×6.2 cm) pf μ-bondapak C-18 after the traces of organic solvents have been removed under vacuum. Elution of the column with water gave after lyophylization of the appropriate fractions a yellowish powder 0.062 g (84%), ir (KBr) .nu.max : 3700-3000 (OH), 1755 (C--O of β-lactam), 1630 (pyridinium), 1590 cm^-1 (carboxylate), ^1 Hmr (D2 O): 1.22 (3H, d, J=6.4 Hz, CH3 CHOH), 2.92 (d, J=9.1 Hz, H-4), 2.97 (d, J=9.1 Hz, H-4), 3.20 (dd, J=2.5 Hz, J=6.1 Hz, H-6), 3.44 (t, J=6.0 Hz, CH2 S), 3.93 (dd, J=9.1 Hz, J=2.5 Hz, H-5), 4.82 (t, J=6.0 Hz, CH2 N^+), 8.04 (m, Hm of pyridinium), 8.5 (m, Hp of pyridinium), 8.82 (dd, J=3.2. Hz, J=1.1 Hz, Ho of pyridinium), uv (H2 O) λ max : 259 (ε5800), 296 (ε7030) mμ, .tau.1/2 =13.5 h (measured at a concentration of 10^-4 M in phosphate buffer pH 7.4 at 36.8° C.).

[14] = tested on: P. aeruginosa A9843A; experiment: animal or person; format: in vivo, mice; details: Pseudomonas aeruginosa, in Mus musculus, im, read-out: PD50 /treatment
Description: The PD50 (dose in mg/kg required to give protection to 50% of the infected mice) is indicated.

[15] = tested on: B. fragilis A22862; experiment: Minimum Inhibitory Concentration, tube dilution; format: cell-based; details: Bacteroides fragilis, overnight 37° C., table 6
[16] = tested on: P. rettgeri A22424; experiment: Minimum Inhibitory Concentration, tube dilution; format: cell-based; details: Providencia rettgeri, overnight 37° C., table 6, read-out: MIC
[17] = tested on: K. pneumoniae A-9664; experiment: Minimum Inhibitory Concentration, tube dilution; format: cell-based; details: Klebsiella pneumoniae, A9664, overnight 37° C.; table 6
[18] = tested on: E. cloacae A9659; experiment: Minimum Inhibitory Concentration, tube dilution; format: cell-based; details: Enterobacter cloacae, A9659, overnight 37° C.; table 6; read-out: MIC
[19] = tested on: E. cloacae A-9656; experiment: Minimum Inhibitory Concentration, tube dilution; format: cell-based; details: Enterobacter cloacae, A9656; overnight 37° C.; table 6

Compound	MIC [2]	MIC [3]	MIC [4]	MIC [5]	MIC [6]	MIC [7]	MIC [8]	MIC [9]	MIC [10]	MIC [11]	MIC ([12]; A9537, 50% serum)	MIC ([12]; A9537, overnight 37° C.)	ED50 [14]	MIC [17]	further results
CSc1n(C)cc[n+]1CCSC1=C(C(=O)[O-])N2C(=O)[C@H]([C@@H](C)O)[C@H]2C1 [Example 13, (5R, 6S)-3-[2-(2-methylthio-3-methylimidazolio)ethyl-thio]-6-[1-(R)-hydroxyethyl]-7-oxo-1-azabicyclo[3.2.0]hept-2-ene-2-carboxylate]	0.03 µg/mL (≈ 0.0782 µM)	2 µg/mL (≈ 5.22 µM)	0.03 µg/mL (≈ 0.0782 µM)	0.002 µg/mL (≈ 0.00522 µM)	0.5 µg/mL (≈ 1.3 µM)	0.001 µg/mL (≈ 0.00261 µM)	0.03 µg/mL (≈ 0.0782 µM)	0.03 µg/mL (≈ 0.0782 µM)	0.06 µg/mL (≈ 0.156 µM)	32 µg/mL (≈ 83.4 µM)	0.03 µg/mL (≈ 0.0782 µM)	0.008 µg/mL (≈ 0.0209 µM)			MIC [1]: 0.03 µg/mL (≈ 0.0782 µM)
CSc1ccc[n+](CCSC2=C(C(=O)[O-])N3C(=O)[C@H]([C@@H](C)O)[C@H]3C2)c1 [Example 11, (5R,6S)-3-[[2-(3-methylthiopyridinio)ethyl]thio]-6-[1-(R)-hydroxyethyl]-7-oxo-1-azabicyclo[3.2.0]hept-2-ene2-carboxylate]	0.008 µg/mL (≈ 0.021 µM)	1 µg/mL (≈ 2.63 µM)	0.03 µg/mL (≈ 0.0788 µM)	0.001 µg/mL (≈ 0.00263 µM)	0.25 µg/mL (≈ 0.657 µM)	0.001 µg/mL (≈ 0.00263 µM)	0.03 µg/mL (≈ 0.0788 µM)	0.03 µg/mL (≈ 0.0788 µM)	0.06 µg/mL (≈ 0.158 µM)	4 µg/mL (≈ 10.5 µM)	0.03 µg/mL (≈ 0.0788 µM)	0.004 µg/mL (≈ 0.0105 µM)	2.4 mg/kg	0.06 µg/mL (≈ 0.158 µM)	half-life ([13]; phosphate buffer, pH 7.4, 36.8° C., read-out: t1/2 (half-life) (converted)): 20 h; MIC [15]: 0.06 µg/mL (≈ 0.158 µM); MIC [16]: 0.25 µg/mL (≈ 0.657 µM); MIC [18]: 0.06 µg/mL (≈ 0.158 µM)
COc1ccc[n+](CCSC2=C(C(=O)[O-])N3C(=O)[C@H]([C@@H](C)O)[C@H]3C2)c1 [Example 10, 3-[2-(3-methoxy-1-pyridinium)ethylthio]-6α-[1'-(R)-hydroxyethyl]-7-oxo-1-azabicyclo(3.2.0)-hept-2-ene-2-carboxylate]	0.016 µg/mL (≈ 0.0439 µM)	1 µg/mL (≈ 2.74 µM)		0.002 µg/mL (≈ 0.00549 µM)		0.002 µg/mL (≈ 0.00549 µM)	0.06 µg/mL (≈ 0.165 µM)	0.03 µg/mL (≈ 0.0823 µM)		4 µg/mL (≈ 11 µM)	0.06 µg/mL (≈ 0.165 µM)	0.008 µg/mL (≈ 0.022 µM)	1.8 mg/kg	0.06 µg/mL (≈ 0.165 µM)	half-life ([13]; 0.1 m phosphate buffer, pH 7.4, T1/2 (half-life)): 20 h
C[C@@H](O)[C@H]1C(=O)N2C(C(=O)[O-])=C(SC3CCCCC3[n+]3ccccc3)C[C@H]12 (single isomer, unassigned) [Ex. 16 (cmp. "A"), (5R,6S) 3-[2-[(R or S)-(1-pyridinium)]-1-(R or S)-cyclohexylthio]-6-[1-(R)-hydroxyethyl]-7-oxo-1-azabicyclo(3.2.0)hept-2-ene-2-carboxylate]								0.06 µg/mL (≈ 0.154 µM)	0.13 µg/mL (≈ 0.335 µM)						MIC [19]: 0.5 µg/mL (≈ 1.29 µM)
